One experiment has as its system AsPC-1 (G12D). The experiment is described as follows: In vitro cell proliferation inhibition test (CellTiter-Glo Luminescent Cell Viability Assay). It counts as cell-based. The settings on record: AsPC-1 cell line, Pancreas, KRAS (p.G12D), cells and compounds co-incubated 72 hours. The text has this:
(§1) Due to the diversity of RAS mutations and in order to evaluate the activity of compounds in different RAS mutant cell lines, we selected KRAS^WT, KRAS^G12C, KRAS^G12D), KRAS^G12V and BRAF mutant cell lines (see the table below) for in vitro activity evaluation and screening of compounds .
(§2) Experimental protocol: CellTiter-Glo® Cell Luminescent Viability Assay (Promega)
(§3) According to the doubling time of different cell lines, different numbers of cells (1000-5000 cells/well) were inoculated into 96-well plates containing 180 µl of the corresponding medium, and cultured overnight in a 37°C cell incubator containing 5% CO2. On the second day, the compound to be tested was pre-diluted 3-fold with the medium, the highest concentration was 100 µM, and there were 10 concentration gradients in total; then 20 µl of the medium containing different concentrations of the compound was added to the cells in the 96-well plate to ensure the final concentration of the compound to be up to 10 µM, with 10 concentration gradients of 3-fold dilutions. After co-incubating cells and compounds for 72 hours, the 96-well plate was taken out of the incubator, placed at room temperature for 30 minutes, and then 25 µl CellTiter-Glo® Reagent was added to each well to mix well, and incubated at room temperature for 10 minutes, and then 100 µl of the sample was transferred to a white 96-well plate (OptiPlateTM-96, PerkinElmer), the […] signal value was read using a multi-functional microplate reader (SpectraMax® i3x, Molecular devices). Subsequently, the signal value was standardized, and the four-parameter fitting regression equation was used for curve fitting to calculate the half maximal inhibitory concentration (IC50) of the compound on the cell line. Table 3: Antiproliferative activity of compounds of the present invention on KRAS cell mutants
Background: ATP-based viability assays read luminescence as a measure of living cells.

In the next experiment the test system is SW480 (G12V). The experiment is described as above. It counts as cell-based. The settings on record: SW480 cell line, Large intestine, Colon, KRAS (p.G12V), cells and compounds co-incubated 72 hours.
Description: as §1, §2, §3

In general, IC50 refers to the midpoint of a concentration-inhibition curve.

As for `CCn1c(-c2cc(C#CCN3CCS(=N)(=O)CC3)cnc2C(C)OC)c2c3cc(ccc31)-c1csc(n1)CC(NC(=O)C1CC1C)C(=O)N1CCCC(N1)C(=O)OCC(C)(C)C2` [Example 57, (1S,2S)-N-((6^3S,4S,Z)-1^1-ethyl-1^2-(5-(3-(1-imino-1-oxido-1l6-thiomorpholino)prop-1-yn-1-yl)-2-((S)-1-methoxyethyl)pyridin-3-yl)-10,10-dimethyl-5,7-dioxo-6^1,6^2,6^3,6^4,6^5,6^6-hexahydro-1^1H-8-oxa-2(4,2)-thiazola-1(5,3)-indola-6(1,3)-pyridazinacycloundecaphane-4-yl)-2-methylcyclopropane-1-carboxamide], the IC50 in the experiment on AsPC-1 (G12D) is 1.9 nM; in the experiment on SW480 (G12V) it was 2 nM.

As to `CCn1c(-c2cc(C#Cc3cccc4c3ccn4C)cnc2[C@H](C)OC)c2c3cc(ccc31)-c1csc(n1)C[C@H](NC(=O)[C@H]1C[C@@H]1C)C(=O)N1CCC[C@H](N1)C(=O)OCC(C)(C)C2` [Example 56, (1S,2S)-N-((6^3S,4S,Z)-1^1-ethyl-1^2-(2-((S)-1-methoxyethyl)-5-((1-methyl-1H-indol-4-yl)ethynyl)pyridin-3-yl)-10,10-dimethyl-5,7-dioxo-6^1,6^2,6^3,6^4,6^5,6^6-hexahydro-1^1H-8-oxa-2(4,2)-thiazola-1(5,3)-indola-6(1,3)-pyridazinacycloundecaphane-4-yl)-2-methylcyclopropane-1-carboxamide], the IC50 with AsPC-1 (G12D) turned out to be 291 nM; with SW480 (G12V), 487 nM.

With “(1S,2S)-N-((6^3S,4S,Z)-1^1-ethyl-1^2-(2-((S)-1-methoxyethyl)-5-(((S)-4-methyl-1,1-dioxidothiomorpholin-2-yl)ethynyl)pyridin-3-yl)-10,10-dimethyl-5,7-dioxo-6^1,6^2,6^3,6^4,6^5,6^6-hexahydro-1^1H-8-oxa-2(4,2)-thiazola-1(5,3)-indola-6(1,3)-pyridazinacycloundecaphane-4-yl)-2-methylcyclopropane-1-carboxamide [Example 45]”, the IC50 with AsPC-1 (G12D) amounted to 5.3 nM; in the experiment with SW480 (G12V), 7.4 nM.

Consider “(1S,2S)-N-((6^3S,4S,Z)-1^1-ethyl-1^2-(2-((S)-1-methoxyethyl)-5-((6-methyl-5,6,7,8-tetrahydropyrido[4,3-d]pyrimidin-2-yl)ethynyl)pyridin-3-yl)-10,10-dimethyl-5,7-dioxo-6^1,6^2,6^3,6^4,6^5,6^6-hexahydro-1^1H-8-oxa-2(4,2)-thiazola-1(5,3)-indola-6(1,3)-pyridazinacycloundecaphane-4-yl)-2-methylcyclopropane-1-carboxamide [Example 44]”, for which the IC50 with AsPC-1 (G12D) was found to be 16.8 nM; with SW480 (G12V), 6.3 nM.

`CCn1c(-c2cc(C#CCN(C)C3CCOCC3)cnc2C(C)OC)c2c3cc(ccc31)-c1csc(n1)CC(NC(=O)C1C(C)C1C)C(=O)N1CCCC(N1)C(=O)OCC(C)(C)C2` [Example 36, (1r,2R,3S)-N-((6^3S,4S,Z)-1^1-ethyl-1^2-(2-((S)-1-methoxyethyl)-5-(3-(methyl(tetrahydro-2H-pyran-4-yl)amino)prop-1-yn-1-yl)pyridin-3-yl)-10,10-dimethyl-5,7-dioxo-6^1,6^2,6^3,6^4,6^5,6^6-hexahydro-1^1H-8-oxa-2(4,2)-thiazola-1(5,3)-indola-6(1,3)-pyridazinacycloundecaphane-4-yl)-2,3-dimethylcyclopropane-1-carboxamide]: the IC50 with AsPC-1 (G12D) came out at 0.73 nM; in the experiment on SW480 (G12V), 0.54 nM.

Take `CCNc1ccc(C#Cc2cnc(C(C)OC)c(-c3c4c5cc(ccc5n3CC)-c3csc(n3)CC(NC(=O)C3C(C)C3C)C(=O)N3CCCC(N3)C(=O)OCC(C)(C)C4)c2)nn1` [32+32, (1r,2R,3S)-N-((6^3S,4S,Z)-1^1-ethyl-1^2-(5-((6-(ethylamino)pyridazin-3-yl)ethynyl)-2-((S)-1-methoxyethyl)pyridin-3-yl)-10,10-dimethyl-5,7-dioxo-6^1,6^2,6^3,6^4,6^5,6^6-hexahydro-1^1H-8-oxa-2(4,2)-thiazola-1(5,3)-indola-6(1,3)-pyridazinacycloundecaphane-4-yl)-2,3-dimethylcyclopropane-1-carboxamide]: the IC50 with AsPC-1 (G12D) worked out at 15.3 nM; with SW480 (G12V), 55.4 nM.

`CCn1c(-c2cc(C#CC3(C)CN(C)C3)cnc2C(C)OC)c2c3cc(ccc31)-c1csc(n1)CC(NC(=O)C1C(C)C1C)C(=O)N1CCCC(N1)C(=O)OCC(C)(C)C2` (single isomer, unassigned) [Example 19]: the IC50 in the experiment on AsPC-1 (G12D) was 2.2 nM; in the experiment on SW480 (G12V), 1.5 nM.

Turning to “(1r,2R,3S)-N-((6^3S,4S,Z)-1^1-ethyl-1^2-(5-(3-((S)-hexahydropyrazino[2,1-c][1,4]oxazin-8(1H)-yl)prop-1-yn-1-yl)-2-((S)-1-methoxyethyl)pyridin-3-yl)-10,10-dimethyl-5,7-dioxo-6^1,6^2,6^3,6^4,6^5,6^6-hexahydro-1^1H-8-oxa-2(4,2)-thiazola-1(5,3)-indola-6(1,3)-pyridazinacycloundecaphane-4-yl)-2,3-dimethylcyclopropane-1-carboxamide [Example 40]”, the IC50 in the experiment on AsPC-1 (G12D) turned out to be 1.35 nM; with SW480 (G12V), 1.5 nM.

As for `CCn1c(-c2cc(C#Cc3cnccn3)cnc2[C@H](C)OC)c2c3cc(ccc31)-c1csc(n1)C[C@H](NC(=O)[C@H]1C[C@@H]1C)C(=O)N1CCC[C@H](N1)C(=O)OCC(C)(C)C2` (single isomer, unassigned) [Example 27], the IC50 with AsPC-1 (G12D) was 4.6 nM; with SW480 (G12V), 14.5 nM.

With `CCn1c(-c2cc(C#CCN3CCOCC3)cnc2C(C)OC)c2c3cc(ccc31)-c1csc(n1)CC(NC(=O)C1CC1F)C(=O)N1CCCC(N1)C(=O)OCC(C)(C)C2` (single isomer, unassigned) [Example 24], the figures for the IC50 with AsPC-1 (G12D) and with SW480 (G12V) were 24.2 nM and 58.4 nM, respectively.

For `CCn1c(-c2cc(C#CC3CCN(C)C3)cnc2C(C)OC)c2c3cc(ccc31)-c1csc(n1)CC(NC(=O)C1C(C)C1C)C(=O)N1CCCC(N1)C(=O)OCC(C)(C)C2` (single isomer, unassigned) [Example 18], the IC50 was 3.4 nM in the experiment on AsPC-1 (G12D) and 0.42 nM in the experiment on SW480 (G12V).

`CCn1c(-c2cc(C#CCN3CCOCC3)cnc2[C@H](C)OC)c2c3cc(ccc31)-c1csc(n1)C[C@H](NC(=O)C1(C(F)(F)F)CC1)C(=O)N1CCC[C@H](N1)C(=O)OCC(C)(C)C2` (single isomer, unassigned) [Example 26]: the IC50 with AsPC-1 (G12D) worked out at 20.8 nM; in the experiment on SW480 (G12V), 34.6 nM.

`CCn1c(-c2cc(C#CC3CN(C)CCO3)cnc2C(C)OC)c2c3cc(ccc31)-c1csc(n1)CC(NC(=O)C1CC1C)C(=O)N1CCCC(N1)C(=O)OCC(C)(C)C2` (single isomer, unassigned) [Example 8]: the half-inhibitory concentration (IC50) in the experiment with AsPC-1 (G12D) stood at 17.9 nM; in the experiment with AsPC-1 (G12D) (listed as 8') it was 3870 nM; with SW480 (G12V) it was 18.9 nM; in the experiment on SW480 (G12V) (listed as 8'), 2030 nM.

For `CCNc1cccc(C#Cc2cnc([C@H](C)OC)c(-c3c4c5cc(ccc5n3CC)-c3csc(n3)C[C@H](NC(=O)[C@H]3C[C@@H]3C)C(=O)N3CCC[C@H](N3)C(=O)OCC(C)(C)C4)c2)n1` (single isomer, unassigned) [Example 31], the IC50 stood at 78 nM in the experiment with AsPC-1 (G12D) and 100 nM in the experiment with SW480 (G12V).

In the case of `CO[C@@H](C)c1ncc(C#CCN2CCOCC2)cc1-c1c2c3cc(ccc3n1CC(F)(F)F)-c1csc(n1)C[C@H](NC(=O)[C@H]1C[C@@H]1C)C(=O)N1CCC[C@H](N1)C(=O)OCC(C)(C)C2` (single isomer, unassigned) [Example 3], the IC50 was determined as 3.5 nM in the experiment with AsPC-1 (G12D), 292 nM in the experiment on AsPC-1 (G12D) (listed as 3'), 2.2 nM in the experiment with SW480 (G12V) and 2060 nM in the experiment with SW480 (G12V) (listed as 3').

As to “(1S,2S)-N-((6^3S,4S,Z)-1^2-(5-(3-(1,1-dioxidothiomorpholino)prop-1-yn-1-yl)-2-((S)-1-methoxyethyl)pyridin-3-yl)-1^1-ethyl-10,10-dimethyl-5,7-dioxo-6^1,6^2,6^3,6^4,6^5,6^6-hexahydro-1^1H-8-oxa-2(4,2)-thiazola-1(5,3)-indola-6(1,3)-pyridazinacycloundecaphane-4-yl)-2-methylcyclopropane-1-carboxamide [Example 43]”, the IC50 in the experiment on AsPC-1 (G12D) stood at 0.42 nM; in the experiment on SW480 (G12V) it was 0.68 nM.

Values taken from patent EP4582426A1, “PAN-KRAS INHIBITOR COMPOUND” (Adlai Nortye Biopharma Co., Ltd., priority 2022, dated 2024).
